Laboratory results: a melting point compilation (Tetko et al.; mined from patent text by program, amines drawn as free bases though some values may be those of a salt)

Row | melting point | SMILES
1 | 116 to 117 °C | COc1cc(C=C(C)[N+](=O)[O-])ccc1OCC(=O)O
2 | 148 °C | CC(c1cc(Cl)cc(Cl)c1O)c1cc(F)cc(CO)c1O (stereo unspecified)
3 | 130 to 132 °C | COC(=O)CC(C)NC(=O)c1ccc(N2CCN(c3ccncc3)CC2)cc1 (stereo unspecified)
4 | 205 to 207 °C | CCOC(=O)c1ccc2c(c1)C(C)(Cl)C(=S)N2 (stereo unspecified)
5 | 196 to 199 °C | CC1CC(=O)c2ccc(C(C)C(=O)O)cc2C1 (stereo unspecified)
6 | 71 to 73 °C | CCOC(=O)c1[nH]c(CC)c(CC)c1C
7 | 239 to 242 °C | CCCc1nc2c(C#N)ncc(C)c2[nH]1
8 | 35 to 38 °C | CCCCCCCCC=CCCCCCCCCOCC(CN(C)C)OCCCCCCCCC=CCCCCCCCC (stereo unspecified)
9 | 77 to 79 °C | C=CCc1ccc(OCC(O)CO)c(OC)c1 (stereo unspecified)
10 | 127 to 130 °C | O=C(O)C(=O)c1ccc(OCCCCCCc2cccc(O)c2O)cc1
11 | 55 °C | CCCCCCCCCCCCCCCCC#CCC(CO)CO
12 | 109 °C | N#CC(Cl)CS(=O)(=O)c1ccc(OC(F)(F)C(Cl)Cl)cc1 (stereo unspecified)
13 | 133 to 135 °C | COc1cc(N)c(Cl)cc1C(=O)NCC1CCN(CCCCCC(=O)c2c(C)oc3ccccc23)CC1
14 | 32 to 34 °C | COc1ccc(CCCCCCCOc2ccccc2)cc1
15 | 121 to 123 °C | O=C(NC/C=C\COc1cc(CN2CCCCC2)ccn1)c1cn[nH]c1
16 | 132 °C | Cc1c(C)c2c(c(C)c1O)CCC(C#N)(C(C)C)O2 (stereo unspecified)
17 | 133 to 137 °C | Nc1cc(OCCO)ncn1
18 | 151 to 152 °C | CCOC(=O)c1c(C)cc2c(=O)n(-c3ccccc3Cl)cnc2c1C

Further lines, the molecule ahead of its results:

Row | SMILES | melting point
19 | O=C(c1cccc(Cl)c1)N1CCc2cc(S(=O)(=O)N3CCN(c4cccc(Cl)c4)CC3)ccc21 | 221 to 222 °C
20 | Nc1nccc(-c2c[nH]c3nccc(CCc4ccccc4)c23)n1 | 196 to 198 °C
21 | O=C(Nc1cc2nc(-c3ccc(C(=O)C45CC6CC(CC(C6)C4)C5)cc3)[nH]c2cn1)C12CC3CC(CC(C3)C1)C2 | 265 °C
22 | O=C(Nc1ccc(-n2nc(C(F)(F)F)cc2C(F)(F)F)cc1)c1ccccc1 | 177 to 178 °C
23 | Cc1cc(Oc2cc(C(F)(F)F)nn2C)nc(C(=O)O)c1 | 168 °C
24 | O=C(Nc1ccc(N2CCCC2)nc1)c1cc2nc(C(F)(F)F)ccc2n1Cc1cccc(F)c1 | 219 to 220 °C
25 | Cc1csc(NC(=O)c2ccc(CN3CCN(c4nc(C)cs4)C3=O)cc2)n1 | 197 to 198 °C
26 | COc1cc(OC)c(OC)cc1CN1CCc2cc(O)ccc2C1 | 188 to 191 °C
27 | Cc1cc2c(s1)Nc1ccccc1N=C2N1CCN[C@@H](CCc2ccccc2)C1 | 75 to 84 °C
28 | CC(C)(C)c1ccc2c(c1)C(C(=O)O)c1ccccc1CO2 (stereo unspecified) | 197 to 198 °C
29 | Cc1c(-c2ccccc2)[nH]c(N)c1C(N)=O | 195 to 197 °C
30 | c1cnn(Cc2ccc3c(c2)Cc2c(-c4ccsc4)n[nH]c2-3)n1 | 238 to 241 °C
31 | NC(=O)CSC(c1ccccc1)c1ccccc1 | 104 to 110 °C
32 | CN1CC(c2cc[nH]n2)CC2c3cccc4[nH]cc(c34)CC21 (stereo unspecified) | 160 to 162 °C
33 | Cn1nc(-c2ccccc2C(F)(F)F)nc1-c1ccccc1Cl | 90 to 92 °C
34 | Nc1sc2c(c1C(=O)c1ccc(Cl)cc1)CCC(O)C2 (stereo unspecified) | 176 to 177 °C
35 | Cc1ccc(S(=O)(=O)NC(=O)Nc2ccccc2)cc1 | 166 °C
36 | COc1ccc2c(c1)CCC1=C2CCC2(C(C)C)C(=O)CC=C12 (stereo unspecified) | 112 to 113 °C
37 | CCCCCn1c2ccc(C(=O)NN3CCCCC3)cc2c2ccc(OC)cc21 | 178 to 179 °C
38 | Cn1c(SCc2ccccc2)nc2cnc3ccccc3c21 | 160 to 163 °C
39 | CC(N)c1ccc2c(c1)N(C(=O)OC(C)(C)C)CCC2 (stereo unspecified) | 61 to 64 °C
40 | COc1ccccc1C(=Cc1ccccc1[N+](=O)[O-])C(=O)O | 217 to 219 °C
41 | O=c1oc(-c2ccccc2)cc(O)c1SCCOc1ccccc1 | 146 to 149 °C
